Experimental data as given in the NIST ThermoML archive (doi:10.1021/je700055p).
± gives the expanded uncertainty stated by the source.

Test: relative permittivity at various frequencies (dimensionless); xn = mol fraction of the nth substance listed
Conditions: 101.3 kPa, Liquid, Frequency=1 MHz, Coaxial cylinder capacitor

CC#N [acetonitrile] + O
relative permittivity (288.15 K, x1 = 0.0465): 78.61 ± 0.35 | relative permittivity (288.15 K, x1 = 0.0988): 73.85 ± 0.33 | relative permittivity (288.15 K, x1 = 0.158): 68.68 ± 0.31 | relative permittivity (288.15 K, x1 = 0.226): 63.44 ± 0.29 | relative permittivity (288.15 K, x1 = 0.305): 58.11 ± 0.26 | relative permittivity (288.15 K, x1 = 0.397): 53.1 ± 0.24 | relative permittivity (288.15 K, x1 = 0.506): 48.72 ± 0.22 | relative permittivity (288.15 K, x1 = 0.637): 44.82 ± 0.2 | relative permittivity (288.15 K, x1 = 0.798): 41.05 ± 0.18 | relative permittivity (288.15 K, x1 = 1): 37.52 ± 0.17 | relative permittivity (293.15 K, x1 = 0.0465): 76.8 ± 0.34 | relative permittivity (293.15 K, x1 = 0.0988): 72.05 ± 0.32 | relative permittivity (293.15 K, x1 = 0.158): 67.21 ± 0.3 | relative permittivity (293.15 K, x1 = 0.226): 62 ± 0.27 | relative permittivity (293.15 K, x1 = 0.305): 56.92 ± 0.25 | relative permittivity (293.15 K, x1 = 0.397): 52.2 ± 0.22 | relative permittivity (293.15 K, x1 = 0.506): 47.77 ± 0.21 | relative permittivity (293.15 K, x1 = 0.637): 43.92 ± 0.19 | relative permittivity (293.15 K, x1 = 0.798): 40.39 ± 0.17 | relative permittivity (293.15 K, x1 = 1): 36.62 ± 0.16 | relative permittivity (298.15 K, x1 = 0.0465): 74.92 ± 0.33 | relative permittivity (298.15 K, x1 = 0.0988): 70.49 ± 0.31 | relative permittivity (298.15 K, x1 = 0.158): 65.57 ± 0.29 | relative permittivity (298.15 K, x1 = 0.226): 60.61 ± 0.27 | relative permittivity (298.15 K, x1 = 0.305): 55.69 ± 0.24 | relative permittivity (298.15 K, x1 = 0.397): 51.05 ± 0.22 | relative permittivity (298.15 K, x1 = 0.506): 46.83 ± 0.2 | relative permittivity (298.15 K, x1 = 0.637): 43.1 ± 0.19 | relative permittivity (298.15 K, x1 = 0.798): 39.41 ± 0.17 | relative permittivity (298.15 K, x1 = 1): 35.88 ± 0.16 | relative permittivity (303.15 K, x1 = 0.0465): 73.36 ± 0.32 | relative permittivity (303.15 K, x1 = 0.0988): 68.85 ± 0.3 | relative permittivity (303.15 K, x1 = 0.158): 64.22 ± 0.28 | relative permittivity (303.15 K, x1 = 0.226): 59.3 ± 0.26 | relative permittivity (303.15 K, x1 = 0.305): 54.58 ± 0.24 | relative permittivity (303.15 K, x1 = 0.397): 50.07 ± 0.22 | relative permittivity (303.15 K, x1 = 0.506): 45.89 ± 0.2 | relative permittivity (303.15 K, x1 = 0.637): 42.2 ± 0.18 | relative permittivity (303.15 K, x1 = 0.798): 38.67 ± 0.17 | relative permittivity (303.15 K, x1 = 1): 35.15 ± 0.15 | relative permittivity (308.15 K, x1 = 0.0465): 71.55 ± 0.32 | relative permittivity (308.15 K, x1 = 0.0988): 67.33 ± 0.29 | relative permittivity (308.15 K, x1 = 0.158): 62.78 ± 0.28 | relative permittivity (308.15 K, x1 = 0.226): 58.07 ± 0.25 | relative permittivity (308.15 K, x1 = 0.305): 53.43 ± 0.23 | relative permittivity (308.15 K, x1 = 0.397): 48.88 ± 0.21 | relative permittivity (308.15 K, x1 = 0.506): 44.99 ± 0.19 | relative permittivity (308.15 K, x1 = 0.637): 41.38 ± 0.18 | relative permittivity (308.15 K, x1 = 0.798): 37.85 ± 0.16 | relative permittivity (308.15 K, x1 = 1): 34.45 ± 0.15 | relative permittivity (313.15 K, x1 = 0.0465): 70.04 ± 0.31 | relative permittivity (313.15 K, x1 = 0.0988): 65.9 ± 0.29 | relative permittivity (313.15 K, x1 = 0.158): 61.26 ± 0.27 | relative permittivity (313.15 K, x1 = 0.226): 56.79 ± 0.25 | relative permittivity (313.15 K, x1 = 0.305): 52.28 ± 0.23 | relative permittivity (313.15 K, x1 = 0.397): 47.98 ± 0.21 | relative permittivity (313.15 K, x1 = 0.506): 44.12 ± 0.19 | relative permittivity (313.15 K, x1 = 0.637): 40.64 ± 0.18 | relative permittivity (313.15 K, x1 = 0.798): 37.11 ± 0.16 | relative permittivity (313.15 K, x1 = 1): 33.75 ± 0.15 | relative permittivity (318.15 K, x1 = 0.0465): 68.44 ± 0.3 | relative permittivity (318.15 K, x1 = 0.0988): 64.34 ± 0.28 | relative permittivity (318.15 K, x1 = 0.158): 59.91 ± 0.26 | relative permittivity (318.15 K, x1 = 0.226): 55.44 ± 0.25 | relative permittivity (318.15 K, x1 = 0.305): 51.18 ± 0.22 | relative permittivity (318.15 K, x1 = 0.397): 46.87 ± 0.21 | relative permittivity (318.15 K, x1 = 0.506): 43.18 ± 0.19 | relative permittivity (318.15 K, x1 = 0.637): 39.74 ± 0.17 | relative permittivity (318.15 K, x1 = 0.798): 36.29 ± 0.16 | relative permittivity (318.15 K, x1 = 1): 33.01 ± 0.14 | relative permittivity (323.15 K, x1 = 0.0465): 66.84 ± 0.29 | relative permittivity (323.15 K, x1 = 0.0988): 62.99 ± 0.28 | relative permittivity (323.15 K, x1 = 0.158): 58.6 ± 0.26 | relative permittivity (323.15 K, x1 = 0.226): 54.13 ± 0.24 | relative permittivity (323.15 K, x1 = 0.305): 49.99 ± 0.22 | relative permittivity (323.15 K, x1 = 0.397): 45.89 ± 0.2 | relative permittivity (323.15 K, x1 = 0.506): 42.28 ± 0.18 | relative permittivity (323.15 K, x1 = 0.637): 38.84 ± 0.17 | relative permittivity (323.15 K, x1 = 0.798): 35.39 ± 0.15 | relative permittivity (323.15 K, x1 = 1): 32.36 ± 0.14 | relative permittivity (328.15 K, x1 = 0.0465): 65.36 ± 0.29 | relative permittivity (328.15 K, x1 = 0.0988): 61.47 ± 0.27 | relative permittivity (328.15 K, x1 = 0.158): 57.29 ± 0.25 | relative permittivity (328.15 K, x1 = 0.226): 53.02 ± 0.23 | relative permittivity (328.15 K, x1 = 0.305): 48.92 ± 0.21 | relative permittivity (328.15 K, x1 = 0.397): 44.9 ± 0.2 | relative permittivity (328.15 K, x1 = 0.506): 41.38 ± 0.18 | relative permittivity (328.15 K, x1 = 0.637): 37.97 ± 0.17 | relative permittivity (328.15 K, x1 = 0.798): 34.82 ± 0.15 | relative permittivity (328.15 K, x1 = 1): 31.62 ± 0.14 | relative permittivity (333.15 K, x1 = 0.0465): 63.85 ± 0.28 | relative permittivity (333.15 K, x1 = 0.0988): 60.07 ± 0.26 | relative permittivity (333.15 K, x1 = 0.158): 55.97 ± 0.24 | relative permittivity (333.15 K, x1 = 0.226): 51.79 ± 0.22 | relative permittivity (333.15 K, x1 = 0.305): 47.94 ± 0.2 | relative permittivity (333.15 K, x1 = 0.397): 43.92 ± 0.18 | relative permittivity (333.15 K, x1 = 0.506): 40.52 ± 0.17 | relative permittivity (333.15 K, x1 = 0.637): 37.15 ± 0.15 | relative permittivity (333.15 K, x1 = 0.798): 34.08 ± 0.14 | relative permittivity (333.15 K, x1 = 1): 31.05 ± 0.13
